Results on 5 molecules are retold here after PMC10657973 (Journal of Pharmaceutical Analysis, 2023).

“Also recorded” adds a separate entry of the source.

Data set [1] deals with MRP4. The following applies: read-out: affinity (Km) for MRP4; cited from earlier work.
Data set [2] deals with MRP2. The following applies: read-out: affinity (Km) for MRP2; cited from earlier work.
The test system of data set [3] is P-gp. Kind of data set: Specificity: uptake in P-gp-overexpressing cells. The format is cell-based. The following applies: uptake in overexpressing cells vs control, 4 mM ATP.
The target in data set [4] is T1, OAT1 (Homo sapiens, UniProt Q4U2R8).
T1 sequence (Q4U2R8 1-563): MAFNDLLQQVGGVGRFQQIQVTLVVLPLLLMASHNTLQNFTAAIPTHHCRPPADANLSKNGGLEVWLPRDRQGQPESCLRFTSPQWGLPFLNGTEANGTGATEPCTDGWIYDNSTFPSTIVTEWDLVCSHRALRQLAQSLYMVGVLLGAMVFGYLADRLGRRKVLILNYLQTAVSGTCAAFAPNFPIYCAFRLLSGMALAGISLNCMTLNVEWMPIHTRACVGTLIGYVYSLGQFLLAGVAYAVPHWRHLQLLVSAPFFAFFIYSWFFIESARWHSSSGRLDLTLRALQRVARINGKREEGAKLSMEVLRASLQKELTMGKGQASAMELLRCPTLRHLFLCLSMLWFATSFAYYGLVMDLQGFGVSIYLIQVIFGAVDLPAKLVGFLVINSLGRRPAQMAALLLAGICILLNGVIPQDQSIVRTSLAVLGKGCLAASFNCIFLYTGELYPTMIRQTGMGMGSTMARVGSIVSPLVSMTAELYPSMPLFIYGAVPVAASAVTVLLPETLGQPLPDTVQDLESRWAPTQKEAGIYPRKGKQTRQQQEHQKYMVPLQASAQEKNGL
Kind of data set: Uptake of UTs in HEK293T-OAT1 cells. The format is cell-based. The settings on record: 100 μM, 30 min; for uptake of HSA-bound UT in OAT1-overexpressing cells vs control cells / uptake of free UT in OAT1-overexpressing cells vs control cells: 37 °C; for uptake of HSA-bound UT in OAT1-overexpressing cells vs control cells: with HSA; for uptake of free UT in OAT1-overexpressing cells vs control cells: without HSA.

Data set [5] deals with rMRP4. The class given is in vivo, rats.
Data set [6] concerns rOAT1/3. Put plainly: rOAT1/3−/− rat experiment. The format is in vivo, rats.
Data set [7] relates to rMRP4. The class given is in vivo, rats. The source holds these as a separate data set.
The test system of data set [8] is MRP4. Put plainly: Intracellular accumulation of UTs in MRP4-overexpressing cells. The following applies: 100 μM, 30 min. The class given is cell-based, human.
Data set [9] deals with T1, OAT1. Kind of data set: Transport kinetics of UTs in HEK293T-OAT1 cells. The format is cell-based.
Data set [10] deals with OAT4. Kind of data set: Specificity: uptake in OAT4-overexpressing cells. The format is cell-based.
In data set [11] the test system is OAT1/3 and MRP4 double-transfected MDCK cells. The following applies: 37 °C.
The test system of data set [12] is rOATs. Put plainly: rOATs inhibition experiment.
Data set [13] in a line: Correlation between biomarkers and cefmetazole pharmacokinetics in rats. The format is in vivo. The following applies: for plasma concentrations in rats treated with PROB: PROB 60 and 120 mg/kg 7 days, cefmetazole 100 mg/kg i.v.
Data set [14] is classed as in vivo, rats.
For data set [15], the system named is MRP2. Put plainly: Accumulation of kynurenic acid in MRP2-overexpressing cells. The format is cell-based. The following applies: Fig. S15.
The target in data set [16] is T2, OAT3 (Homo sapiens, UniProt Q8TCC7).
T2 sequence (Q8TCC7 1-542): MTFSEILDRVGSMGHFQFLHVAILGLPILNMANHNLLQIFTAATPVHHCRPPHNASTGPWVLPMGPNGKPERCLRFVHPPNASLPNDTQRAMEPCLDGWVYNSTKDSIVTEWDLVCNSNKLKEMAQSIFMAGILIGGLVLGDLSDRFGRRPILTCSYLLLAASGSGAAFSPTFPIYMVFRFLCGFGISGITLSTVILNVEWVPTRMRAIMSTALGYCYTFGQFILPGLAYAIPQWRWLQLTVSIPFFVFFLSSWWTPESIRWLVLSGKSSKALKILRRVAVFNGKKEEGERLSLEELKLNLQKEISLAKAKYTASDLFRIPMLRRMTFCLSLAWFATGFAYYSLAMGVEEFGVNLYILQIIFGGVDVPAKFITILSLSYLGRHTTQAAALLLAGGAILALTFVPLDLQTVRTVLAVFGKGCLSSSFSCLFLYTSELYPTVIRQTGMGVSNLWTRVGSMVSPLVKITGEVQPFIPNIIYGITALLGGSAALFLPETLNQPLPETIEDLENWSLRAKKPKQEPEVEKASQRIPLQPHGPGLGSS
Put plainly: Uptake of UTs in HEK293T-OAT3 cells. The format is cell-based. The settings on record: 100 μM, 30 min; for uptake of HSA-bound UT in OAT3-overexpressing cells vs control cells / uptake of free UT in OAT3-overexpressing cells vs control cells: 37 °C; for uptake of HSA-bound UT in OAT3-overexpressing cells vs control cells: with HSA; for uptake of free UT in OAT3-overexpressing cells vs control cells: without HSA.

In data set [17] the test system is MATE2-K. Kind of data set: Specificity: uptake in MATE2-K-overexpressing cells. The settings on record: uptake in overexpressing cells vs control, pH 8.0. The format is cell-based.
The subject of data set [18] is OAT2. Put plainly: Specificity: uptake in OAT2-overexpressing cells. The format is cell-based. The settings on record: uptake in overexpressing cells vs control.
The subject of data set [19] is OATP4C1. Put plainly: Specificity: uptake in OATP4C1-overexpressing cells. The class given is cell-based. The following applies: uptake in overexpressing cells vs control.
In data set [20] the test system is URAT1. Kind of data set: Specificity: uptake in URAT1-overexpressing cells. The class given is cell-based. The following applies: uptake in overexpressing cells vs control.
For data set [21], the target named is T2, OAT3. Kind of data set: Transport kinetics of UTs in HEK293T-OAT3 cells. The settings on record: read-out: Km of OAT3-mediated uptake; HEK293T-OAT3, Michaelis-Menten. The format is cell-based.
In data set [22] the test system is PEPT2. Put plainly: Specificity: uptake in PEPT2-overexpressing cells. The format is cell-based. The following applies: uptake in overexpressing cells vs control.
The test system of data set [23] is MATE1. Kind of data set: Specificity: uptake in MATE1-overexpressing cells. The format is cell-based. The following applies: uptake in overexpressing cells vs control, pH 8.0.
In data set [24] the test system is OCT2. Kind of data set: Specificity: uptake in OCT2-overexpressing cells. The following applies: uptake in overexpressing cells vs control. The class given is cell-based.
For data set [25] the following is noted: cited from earlier work.
Substrate in data set [26]: O=C(O)c1cc(=O)c2ccccc2[nH]1
Put plainly: Transport kinetics of UTs in HEK293T-OAT3 cells. The format is cell-based, human. The following applies: other: HEK293T-OAT3, Michaelis-Menten.

Substrate in data set [27]: CCCc1oc(CCC(=O)O)c(C(=O)O)c1C
Put plainly: Transport kinetics of UTs in HEK293T-OAT3 cells. The class given is cell-based, human. The settings on record: other: HEK293T-OAT3, Michaelis-Menten.

On to `Nc1ccc(C(=O)NCC(=O)O)cc1` [aminohippuric acid], for which the values for the Km in data set [1] and in [2] were 160 µM and 2000 µM, respectively.
As to `O=C(O)c1cc(=O)c2ccccc2[nH]1` [Kynurenic acid, kynurenic acid], in [3], the “transport mediated by P-gp” value is listed as “not mediated”. In data set [4], the “uptake at 4 °C in OAT1-overexpressing cells vs control” value is recorded as “no significant difference”, the “uptake of HSA-bound UT in OAT1-overexpressing cells vs control cells” value was “dramatically increased” and the “uptake of free UT in OAT1-overexpressing cells vs control cells” value is “dramatically increased; also recorded: significantly higher”. Moreover, in [5] (MK-571 5, 10, 20 mg/kg oral, 7 days), the “levels in renal tissues in rats treated with MK-571 vs control” value is “significantly increased”. Further, in data set [6] (rat, in vivo), the “renal clearance rate in rOAT1/3−/− rats vs WT” value is “significantly decreased” and the “serum levels in rOAT1/3−/− rats vs WT” value is listed as “significantly increased”. For the same molecule, in [7] (Fig. S9), the “efflux from hepatocytes into the blood after rMRP4−/−” value is “hindered”. For the same molecule, in [7] (rat, in vivo), the “renal clearance rate in rMRP4−/− rats vs WT” value is reported as “did not change significantly”, the “renal tissue concentration in rMRP4−/− rats vs WT” value is reported as “unaffected” and the “serum levels in rMRP4−/− rats vs WT” value is reported as “did not change significantly”. Further, the “uptake at 4 °C in MRP4-overexpressing cells vs control” value in data set [8] is recorded as “no significant difference”. Moreover, the linear uptake time in data set [9] (HEK293T-OAT1/3 cells, 100 μM) was in the range of 0 to 10 min. Besides, the “transport mediated by OAT4 / uptake in OAT4-overexpressing cells vs control” value in [10] is given as “not mediated”. Also, the “uptake at 37 °C in OAT3-MRP4 cells vs double control cells” value in data set [11] is “significantly increased”. In data set [12] (PROB 30, 60, 120 mg/kg oral, 7 days), the “serum levels in rats treated with PROB vs control” value is recorded as “increased”. Further, the “plasma concentrations in rats treated with PROB” value in data set [13] was “increased”. Moreover, the “correlation of cmax with cefmetazole” value in data set [13] (WT and rOAT1/3−/− rats) is “moderate”. In addition, the “plasma level in rOAT1/3−/− rats vs WT rats” value in data set [13] (rat, in vivo) is “markedly increased”. The half-life (in general, the time needed for the level to fall by half in the phase considered) in [14] (rat, urine, iv, 2 mg/kg) is 3.7 ± 0.7 h. Moreover, the “rate of metabolism to (d4-)xanthurenic acid in vivo” value in [14] (rats, d5-kynurenic acid 2 mg/kg i.v.) was below 12%. Besides, the “substrate of MRP2” value in [15] is reported as “potential substrate of MRP2”. Besides, in data set [16], the “uptake at 4 °C in OAT3-overexpressing cells vs control” value was “no significant difference”, the “uptake of HSA-bound UT in OAT3-overexpressing cells vs control cells” value was “dramatically increased” and the “uptake of free UT in OAT3-overexpressing cells vs control cells” value is given as “dramatically increased; also recorded: significantly higher”.
Regarding `O=C(O)CNC(=O)C=Cc1ccccc1` [N-(cinnamoyl)glycine], the “transport mediated by P-gp” value in data set [3] is listed as “not mediated”. In addition, in data set [4], the “uptake at 4 °C in OAT1-overexpressing cells vs control” value is “not significantly different”, the “uptake of HSA-bound UT in OAT1-overexpressing cells vs control cells” value is on record as “dramatically increased” and the “uptake of free UT in OAT1-overexpressing cells vs control cells” value was “dramatically increased; also recorded: significantly elevated”. In addition, the “cumulative urinary excretion in rats treated with MK-571 vs control” value in data set [5] (MK-571 (CMPF effect at 20 mg/kg)) is “not affected”. The “transport mediated by MATE2-K” value in data set [17] was “not mediated”. Further, in [18], the “transport mediated by OAT2” value is given as “not mediated”. Further, the “cumulative excretion, WT rats” value in [6] (first value of the printed pair, taken as WT, 12-h urine) came to 16.16 ± 5.27. The “cumulative excretion, rOAT1/3−/− rats” value in data set [6] (second value of the pair, taken as knockout, 12-h urine) was 8.56 ± 3.43. The “uptake at 4 °C in MRP4-overexpressing cells vs control” value in data set [8] is “not significantly different”. Further, in data set [8] (37 °C, 4 mM ATP), the “intracellular accumulation in MRP4-overexpressing cells vs control cells” value was “significantly decreased; also recorded: markedly reduced”. Moreover, the Km (as a rule, the substrate concentration at which the rate is half of its maximum) in [9] (read-out: Km of OAT1-mediated uptake, HEK293T-OAT1, Michaelis-Menten) came to 4260 µM. The “transport mediated by OATP4C1” value in data set [19] is “not mediated”. The “transport mediated by OAT4 / uptake in OAT4-overexpressing cells vs control” value in data set [10] is on record as “not mediated”. Moreover, the “cumulative urinary excretion in rats treated with PROB vs control” value in [12] (12 h urine) was “no significant effects”. Also, in data set [12] (rats / in vivo), the “serum level in vivo (detectability by LC-MS/MS)” value is on record as “below the detection limit”. Moreover, in data set [20], the “transport mediated by URAT1” value is on record as “not mediated”. Moreover, the Km in data set [21] amounted to 2980 µM. In addition, in data set [22], the “transport mediated by PEPT2” value was “not mediated”. For the same molecule, the “transport mediated by MATE1” value in data set [23] is reported as “not mediated”. Moreover, in data set [24], the “transport mediated by OCT2” value is given as “not mediated”. In data set [16], the “uptake at 4 °C in OAT3-overexpressing cells vs control” value is recorded as “not significantly different”, the “uptake of HSA-bound UT in OAT3-overexpressing cells vs control cells” value was “dramatically increased” and the “uptake of free UT in OAT3-overexpressing cells vs control cells” value is listed as “dramatically increased; also recorded: significantly elevated”.
In the case of `CO[C@@]1(NC(=O)CSCC#N)C(=O)N2C(C(=O)O)=C(CSc3nnnn3C)CS[C@@H]21` [cefmetazole, reference compound], in data set [25], the renal tubular secretion result was “about 40%”. Besides, the “plasma concentrations in rats treated with PROB” value in data set [13] is reported as “increased”. Further, the “cmax in WT rats given 100 mg/kg vs KO rats given 60 mg/kg” value in [13] (i.p., 7 consecutive days) is reported as “close to”.

B1: OAT3 (Homo sapiens) (protein)
chain: T2 sequence (Q8TCC7 1-542)
As to B1, the Km in data set [26] is 382.2 µM. In addition, in data set [27], the Km worked out at 447.1 µM and the Vmax is listed as 133.2 pmol/mg protein/min.
